According to patent US11420961B2, “Heterocyclic compounds” (Hoffmann-La Roche Inc., priority 2017, dated 2022):

Each compound was assayed against T1, MAGL (recombinant wild-type) (Homo sapiens, UniProt Q99685) (assay: 4-NPA assay: MAGL inhibitory activity by hydrolysis of 4-nitrophenylacetate, absorbance at 405 nm). Conditions: 4-NPA assay (values without footnote [a]).
T1 sequence (Q99685 1-303): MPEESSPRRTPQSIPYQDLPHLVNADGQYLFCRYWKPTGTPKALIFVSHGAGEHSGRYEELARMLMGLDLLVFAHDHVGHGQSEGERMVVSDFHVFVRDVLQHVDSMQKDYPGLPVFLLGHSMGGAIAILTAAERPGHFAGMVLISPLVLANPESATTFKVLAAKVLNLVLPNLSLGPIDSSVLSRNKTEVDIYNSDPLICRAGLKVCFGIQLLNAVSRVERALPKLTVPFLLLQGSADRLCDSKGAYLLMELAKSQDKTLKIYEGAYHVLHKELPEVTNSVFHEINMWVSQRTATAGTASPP
Assay type: biochemical
Procedure: Compounds were profiled for MAGL inhibitory activity by measuring the enzymatic activity of MAGL by following the hydrolysis of 4-nitorphenylacetate resulting in 4-nitrophenol, which absorbs at 405-412 nm (G. G. Muccioli, G. Labar, D M. Lambert, Chem. Bio. Chem. 2008, 9, 2704-2710). This assay is hereinafter abbreviated “4-NPA assay”.
The 4-NPA assay was carried out in 384 well assay plates (black with clear bottom, non-binding surface treated, Corning Ref. 3655) in a total volume of 40 μL. Compound dilutions were made in 100% DMSO (VWR Chemicals 23500.297) in a polypropylene plate in 3-fold dilution steps to give a final concentration range in the assay from 25 μM to 1.7 nM. 1 μL compound dilutions (100% DMSO) were added to 19 μL MAGL (recombinant wild-type) in assay buffer (50 mM TRIS (GIBCO, 15567-027), 1 mM EDTA (Fluka, 03690-100 ml)). The plate was shaked for 1 min at 2000 rpm (Variomag Teleshake) and then incubated for 15 min at RT. To start the reaction, 20 μL 4-Nitrophenlyacetate (Sigma N-8130) in assay buffer with 6% EtOH was added. The final concentrations in the assay were 1 nM MAGL and 300 μM 4-Nitrophenylacetate. After shaking (1 min, 2000 rpm) and 5 min incubation at RT, the absorbance at 405 nm was measured for a first time (Molecular Devices, SpectraMax Paradigm). A second measurement was then done after incubation for 80 min at RT. From the two measurements, the slope was calculated by substracting the first from the second measurement.
An IC50 of 0.73 nM was found for `O=C1COc2ccc(C(=O)N3CCC(C(c4ccccc4)c4ccc(OCCF)cc4)CC3)cc2N1` (stereo not drawn) [Example 73, 6-[4-[[4-(2-fluoroethoxy)phenyl]-penyl-methyl]piperidine-1-carbonyl]-4H-1,4-benzoxazin-3-one] in this work. An IC50 of 1.8 nM was found for `Cn1cc(C2CCN(C(=O)c3cc4c(cc3F)OCC(=O)N4)CC2)c2cc(Cl)c(F)cc21` [Example 26, 6-[4-(5-chloro-6-fluoro-1-methylindol-3-yl)piperidine-1-carbonyl]-7-fluoro-4H-1,4-benzoxazin-3-one] in this work. An IC50 of 0.2 nM was found for `Cc1cccc([C@@H](c2ccccc2)C2CCN(C(=O)c3ccc4c(c3)NC(=O)CO4)CC2)c1` (single isomer, unassigned) [Example 17] in this work. An IC50 of 0.69 nM was found for `O=C1COc2ccc(C(=O)N3CCC(C(c4ccccc4)c4ccc(Cl)c(Cl)c4)CC3)cc2N1` (stereo not drawn) [Example 4, 6-[4-[(3,4-Dichlorophenyl)-phenylmethyl]piperidine-1-carbonyl]-4H-1,4-benzoxazin-3-one] in this work. An IC50 of 5540 nM was found for `O=C1COc2ccc(C(=O)N3CCC(n4cnc5ccccc54)CC3)cc2N1` [Example 49, 6-[4-(benzimidazol-1-yl)piperidine-1-carbonyl]-4H-1,4-benzoxazin-3-one] in this work. An IC50 of 7.7 nM was found for `COc1ccc(C(c2ccncc2)C2CCN(C(=O)c3ccc4c(c3)NC(=O)CO4)CC2)cc1OC` (single isomer, unassigned) [Example 125, 6-[4-[(S or R)-(3,4-Dimethoxyphenyl)-(4-pyridyl)methyl]piperidine-1-carbonyl]-4H-1,4-benzoxazin-3-one] in this work. An IC50 of 370 nM was found for `O=C1COc2ccc(C(=O)N3CCC(c4noc5cc(F)ccc45)CC3)cc2N1` [Example 51, 6-[4-(6-fluoro-1,2-benzoxazol-3-yl)piperidine-1-carbonyl]-4H-1,4-benzoxazin-3-one] in this work. An IC50 of 0.43 nM was found for `O=C1COc2ccc(C(=O)N3CCC([C@H](c4ccccc4)c4cccc(F)c4)CC3)cc2N1` [Example 75, 6-[4-[(R)-(3-fluorophenyl)-phenyl-methyl]piperidine-1-carbonyl]-4H-1,4-benzoxazin-3-one] in this work. An IC50 of 1.1 nM was found for `O=C1COc2ccc(C(=O)N3CCC([C@@H](c4ccccc4)c4cccc(OCCF)c4)CC3)cc2N1` [Example 81, 6-[4-[(S)-[3-(2-fluoroethoxy)phenyl]-phenyl-methyl]piperidine-1-carbonyl]-4H-1,4-benzoxazin-3-one] in this work. An IC50 of 0.3 nM was found for `Cc1ccc(C(c2ccc(F)cc2)C2CCN(C(=O)c3ccc4c(c3)NC(=O)CO4)CC2)cc1` (single isomer, unassigned) [Example 112, 6-[4-[(S or R)-(4-Fluorophenyl)-(p-tolyl)methyl]piperidine-1-carbonyl]-4H-1,4-benzoxazin-3-one] in this work. An IC50 of 0.56 nM was found for `O=C1COc2ccc(C(=O)N3CCC([C@@H](c4ccccc4)c4cccc(F)c4)CC3)cc2N1` [Example 74, 6-[4-[(S)-(3-fluorophenyl)-phenyl-methyl]piperidine-1-carbonyl]-4H-1,4-benzoxazin-3-one] in this work. An IC50 of 7.3 nM was found for `COc1ccc(C(c2ccccn2)C2CCN(C(=O)c3ccc4c(c3)NC(=O)CO4)CC2)cc1OC` (single isomer, unassigned) [Example 117, 6-[4-[(S or R)-(3,4-Dimethoxyphenyl)-(2-pyridyl)methyl]piperidine-1-carbonyl]-4H-1,4-benzoxazin-3-one] in this work. An IC50 of 4.8 nM was found for `O=C1COc2ccc(C(=O)N3CCC(C(c4ccc(F)cc4)c4cccc(F)n4)CC3)cc2N1` (single isomer, unassigned) [Example 118, 6-[4-[(S or R)-(4-fluorophenyl)-(6-fluoro-2-pyridyl)methyl]piperidine-1-carbonyl]-4H-1,4-benzoxazin-3-one] in this work. An IC50 of 390 nM was found for `O=C1COc2ccc(C(=O)N3CCC(c4cc(-c5ccc(Cl)cc5)[nH]n4)CC3)cc2N1` [Example 44, 6-[4-[5-(4-chlorophenyl)-1H-pyrazol-3-yl]piperidine-1-carbonyl]-4H-1,4-benzoxazin-3-one] in this work. An IC50 of 497 nM was found for `O=C1COc2ccc(C(=O)N3CCN(c4ccc(Cl)c(C(F)(F)F)c4)CC3)cc2N1` [Example 85, 6-[4-[4-chloro-3-(trifluoromethyl)phenyl]piperazine-1-carbonyl]-4H-1,4-benzoxazin-3-one] in this work. An IC50 of 33 nM was found for `O=C1COc2ccc(C(=O)N3CCC(c4c[nH]c5ccccc45)CC3)cc2N1` [Example 18, 6-[4-(1H-indol-3-yl)piperidine-1-carbonyl]-4H-1,4-benzoxazin-3-one] in this work. An IC50 of 1.1 nM was found for `Cc1ccc([C@@H](c2ccccc2)C2CCN(C(=O)c3ccc4c(c3)NC(=O)CO4)CC2)cc1` (single isomer, unassigned) [Example 15] in this work. An IC50 of 0.2 nM was found for `O=C1COc2ccc(C(=O)N3CCC(C(c4ccccc4)c4ccc(OCCOCCF)cc4)CC3)cc2N1` (single isomer, unassigned) [Example 96, 6-[4-[(S or R)-[4-[2-(2-Fluoroethoxy)ethoxy]phenyl]-phenyl-methyl]piperidine-1-carbonyl]-4H-1,4-benzoxazin-3-one] in this work. An IC50 of 1320 nM was found for `O=C1COc2ccc(C(=O)N3CCN(c4cc(Cl)cc(Cl)c4)CC3)cc2N1` [Example 87, 6-[4-(3,5-dichlorophenyl)piperazine-1-carbonyl]-4H-1,4-benzoxazin-3-one] in this work. An IC50 of 2.2 nM was found for `O=C1COc2ccc(C(=O)N3CCC(C(c4ccccc4)c4ccc(F)nc4)CC3)cc2N1` (single isomer, unassigned) [Example 103, 6-[4-[(R or S)-(6-Fluoro-3-pyridyl)-phenyl-methyl]piperidine-1-carbonyl]-4H-1,4-benzoxazin-3-one] in this work. An IC50 of 0.5 nM was found for `COc1cccc([C@@H](c2ccccc2)C2CCN(C(=O)c3ccc4c(c3)NC(=O)CO4)CC2)c1` (single isomer, unassigned) [Example 13] in this work. An IC50 of 0.95 nM was found for `O=C1COc2cc(F)c(C(=O)N3CCC(C(c4ccccc4)c4ccccc4)CC3)cc2N1` [Example 1, 6-(4-Benzhydrylpiperidine-1-carbonyl)-7-fluoro-4H-1,4-benzoxazin-3-one] in this work. An IC50 of 220 nM was found for `O=C1COc2ccc(C(=O)N3CCC(c4c[nH]c5ncccc45)CC3)cc2N1` [Example 45, 6-[4-(1H-pyrrolo[2,3-b]pyridin-3-yl)piperidine-1-carbonyl]-4H-1,4-benzoxazin-3-one] in this work. An IC50 of 0.55 nM was found for `O=C1COc2ccc(C(=O)N3CCC(C(c4ccccc4)c4cccc(OCCF)c4)CC3)cc2N1` (stereo not drawn) [Example 72, 6-[4-[[3-(2-fluoroethoxy)phenyl]-phenyl-methyl]piperidine-1-carbonyl]-4H-1,4-benzoxazin-3-one] in this work. An IC50 of 140 nM was found for `O=C1COc2ccc(C(=O)N3CCC(c4noc5ccc(F)cc45)CC3)cc2N1` [Example 52, 6-[4-(5-fluoro-1,2-benzoxazol-3-yl)piperidine-1-carbonyl]-4H-1,4-benzoxazin-3-one] in this work. An IC50 of 84 nM was found for `Cn1nc(C2CCN(C(=O)c3ccc4c(c3)NC(=O)CO4)CC2)c2ccc(Cl)cc21` [Example 39, 6-[4-(6-chloro-1-methylindazol-3-yl)piperidine-1-carbonyl]-4H-1,4-benzoxazin-3-one] in this work. An IC50 of 1400 nM was found for `O=C1COc2ccc(C(=O)N3CCC(c4cccc(Cl)c4)C3)cc2N1` (stereo not drawn) [Example 56, 6-[3-(3-chlorophenyl)pyrrolidine-1-carbonyl]-4H-1,4-benzoxazin-3-one] in this work. An IC50 of 1110 nM was found for `O=C1COc2ccc(C(=O)N3CCC(c4cc5ccc(Cl)cc5[nH]4)CC3)cc2N1` [Example 46, 6-[4-(6-chloro-1H-indol-2-yl)piperidine-1-carbonyl]-4H-1,4-benzoxazin-3-one] in this work. An IC50 of 150 nM was found for `O=C1COc2ccc(C(=O)N3CCC(c4noc5cc(C(F)(F)F)ccc45)CC3)cc2N1` [Example 50, 6-[4-[6-(trifluoromethyl)-1,2-benzoxazol-3-yl]piperidine-1-carbonyl]-4H-1,4-benzoxazin-3-one] in this work. An IC50 of 3020 nM was found for `O=C1COc2ccc(C(=O)N3CCC(c4nccc(C(F)(F)F)n4)C3)cc2N1` (stereo not drawn) [Example 57, 6-[3-[4-(trifluoromethyl)pyrimidin-2-yl]pyrrolidine-1-carbonyl]-4H-1,4-benzoxazin-3-one] in this work. An IC50 of 3.5 nM was found for `O=C1COc2ccc(C(=O)N3CCC(=C(c4ccc(F)cc4)c4ccc(OCCF)cc4)CC3)cc2N1` [Example 93, 6-[4-[[4-(2-Fluoroethoxy)phenyl]-(4-fluorophenyl)methylene]piperidine-1-carbonyl]-4H-1,4-benzoxazin-3-one] in this work. An IC50 of 0.5 nM was found for `Cc1cccc(C(c2ccccc2)C2CCN(C(=O)c3ccc4c(c3)NC(=O)CO4)CC2)c1` (stereo not drawn) [Example 59, 6-[4-[m-tolyl(phenyl)methyl]piperidine-1-carbonyl]-4H-1,4-benzoxazin-3-one] in this work. An IC50 of 9.1 nM was found for `O=C1COc2ccc(C(=O)N3CCC(C(c4ccc(F)cc4)c4cccc(F)n4)CC3)cc2N1` (single isomer, unassigned) [Example 119, 6-[4-[(R or S)-(4-Fluorophenyl)-(6-fluoro-2-pyridyl)methyl]piperidine-1-carbonyl]-4H-1,4-benzoxazin-3-one] in this work.
